Measurements taken from ChEMBL document CHEMBL1148934, “Antitubercular sesterterpenes from the Thai sponge Brachiaster sp” (J Nat Prod, 2004).
In brackets after ≈: the same amount, converted by molar mass.

What was measured:
[1] = system: Mycobacterium tuberculosis; assay: Antitubercular activity against Mycobacterium tuberculosis H37Ra ATCC 25177 after 4 days by microtiter plate alamar blue technique; assay type: functional, organism-based; conditions: 96 h
[2] = system: MCF7; assay: Cytotoxicity against human MCF7 cells by SRB assay; assay type: functional, cell-based
[3] = system: HT-29; assay: Cytotoxicity against human HT29 cells by SRB assay; assay type: functional, cell-based
[4] = system: HeLa; assay: Cytotoxicity against human HeLa cells by SRB assay; assay type: functional, cell-based
[5] = system: KB; assay: Cytotoxicity against human KB cells by SRB assay; assay type: functional, cell-based
[6] = system: HT-29; assay: Cytotoxicity against human HT29 cells at 10 uM by SRB assay; assay type: functional
[7] = system: HeLa; assay: Cytotoxicity against human HeLa cells at 10 uM by SRB assay; assay type: functional
[8] = system: KB; assay: Cytotoxicity against human KB cells at 10 uM by SRB assay; assay type: functional
[9] = system: MCF7; assay: Cytotoxicity against human MCF7 cells at 10 uM by SRB assay; assay type: functional
[10] = system: Mycobacterium tuberculosis; assay: Antimycobacterial activity against Mycobacterium tuberculosis H37Rv; assay type: functional

| Compound | MIC [1] [µM] | IC50 [2] [µM] | IC50 [3] [µM] | IC50 [4] [µM] | IC50 [5] [µM] | Activity [6] [%] | Activity [7] [%] | Activity [8] [%] | Activity [9] [%] | IC50 [1] [µM] | MIC [10] [mg/L] |
| --- | --- | --- | --- | --- | --- | --- | --- | --- | --- | --- | --- |
| CC(=O)O[C@@H]1OC(=O)C=C1[C@H]1CC=C(CC/C=C(\C)CCC2=C(C)CCCC2(C)C)[C@H](O)O1 | 7 (≈ 3.21 µg/mL) | 0.26 | 0.76 | 1.68 | 0.63 |  |  |  |  |  |  |
| CC(=O)OCC1=CC(=O)O[C@@H]1C/C=C(/CC/C=C(\C)CCC1=C(C)CCCC1(C)C)COC(C)=O | 26 (≈ 12.7 µg/mL) | 5.99 |  |  |  | 80 | 80 | 80 |  |  |  |
| CC1(C)CCC[C@]2(C)[C@H]3C[C@@H](O)[C@]4(C)[C@H]5COC(=O)C5=CC[C@H]4[C@]3(C)CC[C@@H]12 | 16 (≈ 6.19 µg/mL) | 0.32 | 0.91 | 1.99 | 0.75 |  |  |  |  |  |  |
| CC(=O)O[C@@H]1OC(=O)C2=CC[C@H]3[C@]4(C)CC[C@H]5C(C)(C)CCC[C@]5(C)[C@H]4CC[C@]3(C)[C@H]21 | 4 (≈ 1.71 µg/mL) |  |  |  |  | 80 | 80 | 80 | 80 |  |  |
| NNC(=O)c1ccncc1 [ISONIAZID] | 0.29 (≈ 0.0398 µg/mL) |  |  |  |  |  |  |  |  |  |  |
| CC(=O)O[C@@H]1OC=C2[C@@H](OC(C)=O)C[C@H]3[C@]4(C)CC[C@H]5C(C)(C)CCC[C@]5(C)[C@H]4C[C@@H](OC(C)=O)[C@]3(C)[C@H]21 [HETERONEMIN ACETATE] | 6 | 6.45 |  |  |  | 80 | 80 | 80 |  |  |  |
| NC[C@H]1O[C@H](O[C@H]2[C@H](O)[C@@H](O[C@H]3O[C@H](CO)[C@@H](O)[C@H](N)[C@H]3O)[C@H](N)C[C@@H]2N)[C@H](O)[C@@H](O)[C@@H]1O [KANAMYCIN] | 3.5 (≈ 1.7 µg/mL) |  |  |  |  |  |  |  |  |  |  |
| CC(=O)O[C@@H]1C[C@@H]2[C@@]3(C)CCCC(C)(C)[C@@H]3CC[C@@]2(C)[C@@H]2CC=C3C(=O)OC[C@@H]3[C@@]12C |  |  | 2.34 | 5.49 | 3.01 |  |  |  |  | 117 |  |
| CC(=O)OCC1=CC(=O)O[C@@H]1C/C=C(\CC/C=C(\C)CCC1=C(C)CCCC1(C)C)COC(C)=O | 51 (≈ 24.8 µg/mL) | 9.34 |  |  |  | 80 | 80 | 80 |  |  |  |
| CC(=O)O[C@@H]1OC=C2[C@@H](OC(C)=O)C[C@H]3[C@]4(C)CC[C@H]5C(C)(C)CCC[C@]5(C)[C@H]4C[C@@H](O)[C@]3(C)[C@H]21 [HETERONEMIN] | 3 (≈ 1.47 µg/mL) | 0.29 | 0.39 | 0.45 | 0.37 |  |  |  |  |  | 6.25 (≈ 12.8 µM) |
